Experimental data from US20250302832A1, “PYRAZINE DERIVATIVES AND USES THEREOF” (FOGHORN THERAPEUTICS INC., priority 2022, published 2025).

How the values were obtained:
HiBit-BRM fusion protein = molecular target: T1, HiBit-BRM fusion protein (Homo sapiens, UniProt P51531); assay: HiBiT-BRM cell-based degradation assay (Nano-Glo HiBiT lytic detection, 24 h); conditions: HeLa cell line expressing HiBiT-BRM; for DC50: read-out: BRM HiBit Degradation IC50
T1 construct: expressed in transfected cells
T1 sequence (P51531 whole entry, the tested form may be a part): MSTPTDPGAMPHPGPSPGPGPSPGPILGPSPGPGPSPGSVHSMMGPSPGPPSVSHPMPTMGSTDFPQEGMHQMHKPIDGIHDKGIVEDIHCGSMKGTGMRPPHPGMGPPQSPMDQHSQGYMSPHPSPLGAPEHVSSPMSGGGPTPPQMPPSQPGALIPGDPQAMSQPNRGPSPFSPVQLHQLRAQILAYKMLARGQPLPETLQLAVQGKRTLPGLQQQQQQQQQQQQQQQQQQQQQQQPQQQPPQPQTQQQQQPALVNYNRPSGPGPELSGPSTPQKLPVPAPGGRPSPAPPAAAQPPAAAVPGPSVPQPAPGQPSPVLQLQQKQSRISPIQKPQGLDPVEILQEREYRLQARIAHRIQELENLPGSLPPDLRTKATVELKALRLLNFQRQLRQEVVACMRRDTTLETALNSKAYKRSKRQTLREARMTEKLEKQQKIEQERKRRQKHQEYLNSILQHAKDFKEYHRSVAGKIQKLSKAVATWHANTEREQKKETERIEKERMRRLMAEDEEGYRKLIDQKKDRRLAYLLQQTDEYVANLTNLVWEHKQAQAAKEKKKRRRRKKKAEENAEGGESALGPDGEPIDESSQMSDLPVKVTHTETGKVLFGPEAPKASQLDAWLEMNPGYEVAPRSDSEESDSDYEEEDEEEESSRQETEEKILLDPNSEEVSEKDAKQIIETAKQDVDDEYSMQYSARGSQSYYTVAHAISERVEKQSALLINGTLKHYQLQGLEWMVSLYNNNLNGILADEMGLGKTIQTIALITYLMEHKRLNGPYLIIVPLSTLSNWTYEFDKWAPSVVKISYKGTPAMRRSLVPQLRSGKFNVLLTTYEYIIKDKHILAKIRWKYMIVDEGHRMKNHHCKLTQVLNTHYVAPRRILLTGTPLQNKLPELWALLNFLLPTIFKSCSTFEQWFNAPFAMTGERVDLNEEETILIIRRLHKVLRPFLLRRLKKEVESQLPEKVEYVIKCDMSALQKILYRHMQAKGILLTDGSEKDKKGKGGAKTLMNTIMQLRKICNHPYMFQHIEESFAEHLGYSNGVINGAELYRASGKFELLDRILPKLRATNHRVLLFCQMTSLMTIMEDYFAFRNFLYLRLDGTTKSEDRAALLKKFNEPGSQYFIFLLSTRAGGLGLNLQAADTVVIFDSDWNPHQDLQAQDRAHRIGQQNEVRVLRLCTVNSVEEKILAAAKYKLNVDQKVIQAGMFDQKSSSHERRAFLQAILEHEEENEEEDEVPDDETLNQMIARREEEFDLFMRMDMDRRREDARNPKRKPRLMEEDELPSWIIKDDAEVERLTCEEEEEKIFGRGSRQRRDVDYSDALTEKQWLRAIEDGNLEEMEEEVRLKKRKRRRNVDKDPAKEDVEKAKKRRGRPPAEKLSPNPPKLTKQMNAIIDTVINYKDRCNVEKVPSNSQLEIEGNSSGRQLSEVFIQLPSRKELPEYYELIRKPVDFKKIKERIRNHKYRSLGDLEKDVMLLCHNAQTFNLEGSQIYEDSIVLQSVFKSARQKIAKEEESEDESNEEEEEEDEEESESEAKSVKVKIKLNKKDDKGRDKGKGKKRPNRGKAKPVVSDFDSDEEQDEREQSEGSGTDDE
How it was run: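 Stable HeLa HiBiT-BRM cells treated 24 h with compounds (10-point 3-fold dilutions, 30 μM final top dose, duplicate). HiBiT levels read by Nano-Glo lytic luminescence; % degradation normalised to DMSO (high control) and 2 μM reference BRM/BRG1 degrader (low control).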

[1] = molecular target: T2, HiBit-BRG1 fusion protein (Homo sapiens, UniProt P51532); assay: HiBiT-BRG1 cell-based degradation assay (Nano-Glo HiBiT lytic detection, 24 h); conditions: HeLa cell line expressing HiBit-BRG1 and LgBit; for Dmax: read-out: BRG1 HiBit Degradation Maximum (%); for DC50: read-out: BRMG1 HiBit Degradation IC50
T2 construct: expressed in transfected cells
T2 sequence (P51532 whole entry, the tested form may be a part): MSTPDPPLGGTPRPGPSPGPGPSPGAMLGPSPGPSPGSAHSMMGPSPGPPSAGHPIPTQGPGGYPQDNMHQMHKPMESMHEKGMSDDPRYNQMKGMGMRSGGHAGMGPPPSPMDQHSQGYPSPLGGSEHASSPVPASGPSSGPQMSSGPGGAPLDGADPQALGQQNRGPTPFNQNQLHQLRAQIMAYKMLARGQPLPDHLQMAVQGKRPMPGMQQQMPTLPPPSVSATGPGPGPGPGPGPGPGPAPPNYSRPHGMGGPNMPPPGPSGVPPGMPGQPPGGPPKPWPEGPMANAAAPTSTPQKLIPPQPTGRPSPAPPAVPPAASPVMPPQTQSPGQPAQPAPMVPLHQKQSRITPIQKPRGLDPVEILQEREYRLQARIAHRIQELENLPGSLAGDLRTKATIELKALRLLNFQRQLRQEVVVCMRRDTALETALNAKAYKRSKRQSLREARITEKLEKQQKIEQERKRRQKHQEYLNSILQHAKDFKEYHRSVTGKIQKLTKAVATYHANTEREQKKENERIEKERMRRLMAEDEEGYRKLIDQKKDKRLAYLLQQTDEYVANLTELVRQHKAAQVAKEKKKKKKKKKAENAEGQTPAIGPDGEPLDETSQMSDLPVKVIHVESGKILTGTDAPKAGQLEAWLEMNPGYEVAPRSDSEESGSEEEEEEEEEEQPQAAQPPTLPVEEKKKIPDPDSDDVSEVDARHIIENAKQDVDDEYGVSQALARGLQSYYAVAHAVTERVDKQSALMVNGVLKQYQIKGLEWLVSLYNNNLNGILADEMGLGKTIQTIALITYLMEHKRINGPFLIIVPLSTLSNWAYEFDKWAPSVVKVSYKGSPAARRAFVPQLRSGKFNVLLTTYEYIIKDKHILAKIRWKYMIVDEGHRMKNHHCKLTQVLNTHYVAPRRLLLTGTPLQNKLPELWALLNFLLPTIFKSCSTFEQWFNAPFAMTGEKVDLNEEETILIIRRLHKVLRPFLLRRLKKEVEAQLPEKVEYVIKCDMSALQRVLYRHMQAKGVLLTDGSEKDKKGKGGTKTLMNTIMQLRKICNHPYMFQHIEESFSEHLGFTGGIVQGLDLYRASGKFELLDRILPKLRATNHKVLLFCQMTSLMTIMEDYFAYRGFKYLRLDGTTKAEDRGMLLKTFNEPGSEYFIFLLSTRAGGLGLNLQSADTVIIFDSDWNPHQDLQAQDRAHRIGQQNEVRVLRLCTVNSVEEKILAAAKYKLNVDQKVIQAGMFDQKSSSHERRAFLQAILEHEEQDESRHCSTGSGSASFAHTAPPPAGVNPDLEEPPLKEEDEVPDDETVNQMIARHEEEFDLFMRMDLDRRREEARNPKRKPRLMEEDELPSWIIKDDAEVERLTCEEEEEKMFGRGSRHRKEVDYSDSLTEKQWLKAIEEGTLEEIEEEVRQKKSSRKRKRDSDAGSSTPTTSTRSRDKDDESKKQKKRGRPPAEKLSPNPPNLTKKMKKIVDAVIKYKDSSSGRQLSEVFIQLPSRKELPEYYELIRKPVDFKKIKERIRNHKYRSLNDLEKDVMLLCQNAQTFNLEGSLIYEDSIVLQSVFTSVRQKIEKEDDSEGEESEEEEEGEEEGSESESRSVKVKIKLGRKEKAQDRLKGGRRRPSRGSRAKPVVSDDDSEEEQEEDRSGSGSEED
How it was run: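 HeLa cells stably expressing HiBiT-BRG1 and LgBiT, 5000 per well, compound-treated 24 h, equilibrated 15 min at room temperature, then lysed with LgBiT-containing Nano-Glo HiBiT lytic reagent and luminescence read. % degradation normalised between DMSO (high control) and 2 μM reference BRM/BRG1 degrader (low control).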

Row | SMILES | BRM HiBit Degradation Maximum (%) (HiBit-BRM fusion protein) | DC50 (HiBit-BRM fusion protein) [nM] | Dmax [1] [%] | DC50 [1] [nM]
1 | Cc1cc(-c2cc([C@H](C(=O)N3C[C@H](O)C[C@H]3C(=O)N[C@@H](C)c3ccc(-c4scnc4C)cc3)C(C)C)on2)cnc1N1CC[C@@H](c2cc3nnc(-c4ccccc4O)cc3n2C2CC2)C1 [Compound 107, (2S,4R)-1-((R)-2-(3-(6-((R)-3-(5-cyclopropyl-3-(2-hydroxyphenyl)-5H-pyrrolo[3,2-c]pyridazin-6-yl)pyrrolidin-1-yl)-5-methylpyridin-3-yl)isoxazol-5-yl)-3-methylbutanoyl)-4-hydroxy-N-((S)-1-(4-(4-methylthiazol-5-yl)phenyl)ethyl)pyrrolidine-2-carboxamide] | A (“A” indicates maximum degradation ≥75%) | > 10 | < 50 | 
2 | Cc1ncsc1-c1ccc([C@H](C)NC(=O)[C@@H]2C[C@@H](O)CN2C(=O)[C@@H](c2cc(-c3cnc(N4CC[C@H](c5cc6nnc(-c7cc(F)cc(F)c7O)cc6n5C5CC5)C4)nc3)no2)C(C)C)cc1 [Compound 108, (2S,4R)-1-((R)-2-(3-(2-((S)-3-(5-cyclopropyl-3-(3,5-difluoro-2-hydroxyphenyl)-5H-pyrrolo[3,2-c]pyridazin-6-yl)pyrrolidin-1-yl)pyrimidin-5-yl)isoxazol-5-yl)-3-methylbutanoyl)-4-hydroxy-N-((S)-1-(4-(4-methylthiazol-5-yl)phenyl)ethyl)pyrrolidine-2-carboxamide] | B (“B” indicates maximum degradation ≥50%) | > 10 | < 50 | 
3 | Cc1ncsc1-c1ccc([C@H](C)NC(=O)[C@@H]2C[C@@H](O)CN2C(=O)[C@@H](c2cc(-c3cnc(N4CC[C@H](c5cc6nnc(-c7cccc(F)c7O)cc6n5C5CC5)C4)nc3)no2)C(C)C)cc1 [Compound 109, (2S,4R)-1-((R)-2-(3-(2-((S)-3-(5-cyclopropyl-3-(3-fluoro-2-hydroxyphenyl)-5H-pyrrolo[3,2-c]pyridazin-6-yl)pyrrolidin-1-yl)pyrimidin-5-yl)isoxazol-5-yl)-3-methylbutanoyl)-4-hydroxy-N-((S)-1-(4-(4-methylthiazol-5-yl)phenyl)ethyl)pyrrolidine-2-carboxamide] | A (“A” indicates maximum degradation ≥75%) | < 10 | < 50 | 
4 | Cc1ncsc1-c1ccc([C@H](C)NC(=O)[C@@H]2C[C@@H](O)CN2C(=O)[C@@H](c2cc(-c3cnc(N4CC[C@@H](c5cc6nnc(-c7cc(F)cc(F)c7O)cc6n5C5CC5)C4)nc3)no2)C(C)C)cc1 [Compound 111, (2S,4R)-1-((R)-2-(3-(2-((R)-3-(5-cyclopropyl-3-(3,5-difluoro-2-hydroxyphenyl)-5H-pyrrolo[3,2-c]pyridazin-6-yl)pyrrolidin-1-yl)pyrimidin-5-yl)isoxazol-5-yl)-3-methylbutanoyl)-4-hydroxy-N-((S)-1-(4-(4-methylthiazol-5-yl)phenyl)ethyl)pyrrolidine-2-carboxamide] | A (“A” indicates maximum degradation ≥75%) | < 10 | < 50 | 
5 | Cc1ncsc1-c1ccc([C@H](C)NC(=O)[C@@H]2C[C@@H](O)CN2C(=O)[C@@H](c2cc(-c3cnc(N4CC[C@H](c5cc6nnc(-c7ccccc7O)cc6n5C5CCC5)C4)nc3)no2)C(C)C)cc1 [Compound 112, (2S,4R)-1-((R)-2-(3-(2-((S)-3-(5-cyclobutyl-3-(2-hydroxyphenyl)-5H-pyrrolo[3,2-c]pyridazin-6-yl)pyrrolidin-1-yl)pyrimidin-5-yl)isoxazol-5-yl)-3-methylbutanoyl)-4-hydroxy-N-((S)-1-(4-(4-methylthiazol-5-yl)phenyl)ethyl)pyrrolidine-2-carboxamide] | A (“A” indicates maximum degradation ≥75%) | > 10 | > 50 | > 10
6 | Cc1ncsc1-c1ccc([C@H](C)NC(=O)[C@@H]2C[C@@H](O)CN2C(=O)[C@@H](c2cc(N3CCC4(CC3)CC(c3cc5nnc(-c6ccccc6O)cc5n3C)C4)no2)C(C)C)cc1 [Compound 113, (2S,4R)-4-hydroxy-1-((R)-2-(3-(2-(3-(2-hydroxyphenyl)-5-methyl-5H-pyrrolo[3,2-c]pyridazin-6-yl)-7-azaspiro[3.5]nonan-7-yl)isoxazol-5-yl)-3-methylbutanoyl)-N-((S)-1-(4-(4-methylthiazol-5-yl)phenyl)ethyl)pyrrolidine-2-carboxamide] | A (“A” indicates maximum degradation ≥75%) | < 10 | > 50 | > 10
7 | Cc1ncsc1-c1ccc([C@H](C)NC(=O)[C@@H]2C[C@@H](O)CN2C(=O)[C@@H](c2cc(-c3cnc(N4CC[C@@H](c5cc6nnc(-c7ccccc7O)cc6n5CC5CC5)C4)nc3)no2)C(C)C)cc1 [Compound 114, (2S,4R)-1-((R)-2-(3-(2-((R)-3-(5-(cyclopropylmethyl)-3-(2-hydroxyphenyl)-5H-pyrrolo[3,2-c]pyridazin-6-yl)pyrrolidin-1-yl)pyrimidin-5-yl)isoxazol-5-yl)-3-methylbutanoyl)-4-hydroxy-N-((S)-1-(4-(4-methylthiazol-5-yl)phenyl)ethyl)pyrrolidine-2-carboxamide] | A (“A” indicates maximum degradation ≥75%) | < 10 | > 75 | > 10
8 | Cc1ncsc1-c1ccc([C@H](C)NC(=O)[C@@H]2C[C@@H](O)CN2C(=O)[C@@H](c2cc(-c3cnc(N4CC[C@H](c5cc6nnc(-c7ccccc7O)cc6n5CC5CC5)C4)nc3)no2)C(C)C)cc1 [Compound 115, (2S,4R)-1-((R)-2-(3-(2-((S)-3-(5-(cyclopropylmethyl)-3-(2-hydroxyphenyl)-5H-pyrrolo[3,2-c]pyridazin-6-yl)pyrrolidin-1-yl)pyrimidin-5-yl)isoxazol-5-yl)-3-methylbutanoyl)-4-hydroxy-N-((S)-1-(4-(4-methylthiazol-5-yl)phenyl)ethyl)pyrrolidine-2-carboxamide] | A (“A” indicates maximum degradation ≥75%) | < 10 | > 50 | > 10
9 | Cc1ncsc1-c1ccc([C@H](C)NC(=O)[C@@H]2C[C@@H](O)CN2C(=O)[C@@H](c2cc(-c3ccnc(N4CC[C@@H](c5cc6nnc(-c7ccccc7O)cc6n5C5CC5)C4)n3)no2)C(C)C)cc1 [Compound 116, (2S,4R)-1-[(2R)-2-(3-{2-[(3R)-3-[5-cyclopropyl-3-(2-hydroxyphenyl)pyrrolo[3,2-c]pyridazin-6-yl]pyrrolidin-1-yl]pyrimidin-4-yl}-1,2-oxazol-5-yl)-3-methylbutanoyl]-4-hydroxy-N-[(1S)-1-[4-(4-methyl-1,3-thiazol-5-yl)phenyl]ethyl]pyrrolidine-2-carboxamide] | A (“A” indicates maximum degradation ≥75%) | > 10 | < 50 | 
10 | Cc1ncsc1-c1ccc([C@H](C)NC(=O)[C@@H]2C[C@@H](O)CN2C(=O)[C@@H](c2cc(N3CCC4(CC3)CC(c3cc5nnc(-c6ccccc6O)cc5n3C3CC3)C4)no2)C(C)C)cc1 [Compound 117, (2S,4R)-1-((R)-2-(3-(2-(5-cyclopropyl-3-(2-hydroxyphenyl)-5H-pyrrolo[3,2-c]pyridazin-6-yl)-7-azaspiro[3.5]nonan-7-yl)isoxazol-5-yl)-3-methylbutanoyl)-4-hydroxy-N-((S)-1-(4-(4-methylthiazol-5-yl)phenyl)ethyl)pyrrolidine-2-carboxamide] | A (“A” indicates maximum degradation ≥75%) | < 10 | < 50 | 
11 | CC(C)C(C(=O)N1C[C@H](O)C[C@H]1C(=O)NC1CCC1)c1cc(N2CC3(CC(c4cc5nnc(-c6ccccc6O)cc5n4C4CCC4)C3)C2)no1 (stereo partly drawn) [Compound 118, (2S,4R)-N-cyclobutyl-1-(2-(3-(6-(5-cyclobutyl-3-(2-hydroxyphenyl)-5H-pyrrolo[3,2-c]pyridazin-6-yl)-2-azaspiro[3.3]heptan-2-yl)isoxazol-5-yl)-3-methylbutanoyl)-4-hydroxypyrrolidine-2-carboxamide] | A (“A” indicates maximum degradation ≥75%) | > 10 | < 50 | 
12 | CC(C)C(C(=O)N1C[C@H](O)C[C@H]1C(=O)NC1CCCC1)c1cc(N2CC3(CC(c4cc5nnc(-c6ccccc6O)cc5n4C4CCC4)C3)C2)no1 (stereo partly drawn) [Compound 119, (2S,4R)-1-(2-(3-(6-(5-cyclobutyl-3-(2-hydroxyphenyl)-5H-pyrrolo[3,2-c]pyridazin-6-yl)-2-azaspiro[3.3]heptan-2-yl)isoxazol-5-yl)-3-methylbutanoyl)-N-cyclopentyl-4-hydroxypyrrolidine-2-carboxamide] | A (“A” indicates maximum degradation ≥75%) | > 10 | < 50 | 
13 | CC(C)C(C(=O)N1C[C@H](O)C[C@H]1C(=O)NC12CC(C1)C2)c1cc(N2CC3(CC(c4cc5nnc(-c6ccccc6O)cc5n4C4CCC4)C3)C2)no1 (stereo partly drawn) [Compound 120, (2S,4R)-N-(bicyclo[1.1.1]pentan-1-yl)-1-(2-(3-(6-(5-cyclobutyl-3-(2-hydroxyphenyl)-5H-pyrrolo[3,2-c]pyridazin-6-yl)-2-azaspiro[3.3]heptan-2-yl)isoxazol-5-yl)-3-methylbutanoyl)-4-hydroxypyrrolidine-2-carboxamide] | A (“A” indicates maximum degradation ≥75%) | > 10 | < 50 | 
